Reference: patent US20240382438A1, “Calcium Channel Blockers and Methods Thereof” (University of Maryland, Eastern Shore, priority 2023, published 2024)
“Also recorded” adds a separate entry of the source.

Tests used:
human Cav3.2 = target: T1, human Cav3.2 (Homo sapiens, UniProt O95180); experiment: Whole-cell patch clamp of T-type Ca2+ currents in Cav3.2-stable transfected HEK 293 cells; assay type: cell-based
T1 construct: host or cells: HEK 293
Protocol: Certain exemplary embodiments have undergone target identification studies to discover a better officious T-type calcium blocker. The fourteen trifluoromethylated N-benzamide enaminone compounds were synthesized, purified, and structure confirmed using gas chromatography/mass spectroscopy, nuclear magnetic resonance, and elemental analysis. Preliminary in vitro whole cell patch clamp experiments were performed to assess the inhibitory effects of several target analogs on voltage-activated calcium currents in human embryonic kidney (HEK-293) cells. Cav3.2 transfected HEK 293 cells were treated with 50 μM of test compounds and compared to the control group (none pretreated HEK 293 cells).
(§1) ND7/23 cells are derived from the fusion of mouse neuroblastoma and rat dorsal root ganglion cells, which generates a more homogeneous sensory neuron-like cell population. ND7/23 cells were purchased from Sigma-Aldrich (RRID:CVCL_4259). Culture and differentiation of ND7/23 cells was performed as previously described. Briefly, ND7/23 cells were cultured in DMEM/F12 culture media (Millipore, Cat. #DF-041-B), supplemented with 0.5% fetal bovine serum (Invitrogen, Cat. #10437010), db-cAMP (1 mM, Sigma-Aldrich, Cat. #D0627), and nerve growth factor (NGF, 50 ng/mL, Sigma-Aldrich, Ca. #N2513). To remove any proliferating cells, cultures were treated with uridine (20 μM, Sigma-Aldrich, Cat. #U3003) and fluorodeoxyuridine (20 μM, Sigma-Aldrich, Cat. #F0503). Cells were maintained in differentiation media without uridine and fluorodeoxyuridin after induction of differentiation. ND7/23 cells were maintained in differentiation media for ≤6 days. HEK 293 cells that were stabled transfected with the human Cav3.2 and Cav3.3 channel subunits were a gift of Dr. E. Perez-Reyes (University of Virginia). Cav3.2 (or Cav3.3)-stabled transfected HEK 293 cells were culture in DMEM/F12 culture media, supplemented with 5% fetal bovine serum, 50 U/mL penicillin and 50 μg/mL streptomycin. ND7/23 and HEK 293 cells were grown in an incubator at 37° C. in the presence of 5% CO2/95% air humidified atmosphere. Cells passaged less than 20 times were used in this work. Cells were grown in poly-D-lysine-coated glass coverslips for electrophysiological recordings.
Whole cell recordings were performed as previously described. A Nikon Eclipse Ti inverted microscope equipped with Hoffman optics and epifluorescence filters was used to visualize individual cells. Recordings were performed at room temperature (22-24° C.) using glass electrodes made from thin wall borosilicate glass (3-5 MΩ). For electrophysiological recordings of inward Ca^2+ currents, outward K^+ currents were eliminated by equimolar substitution of K^+ with Cs^+ in the pipette solution, whereas inward Na^+ currents were eliminated by the use of TEA ions in the external solution, which are unable to go through voltage-gated Na^+ channels. The pipette solution consisted of (in mM) CsCl (120), MgCl2(2), HEPES (10), EGTA (10), ATP (1), and GTP (0.1), pH 7.4 with CsOH. The composition of the normal external saline used for measurements of Ca^2+ currents was (in mM): tetraethylammonium chloride (TEACl, 145), CaCl2 (10), MgCl2(1), HEPES (10), and glucose (5), pH 7.4 adjusted with CsOH. Ca^2+ currents were generated by applying a 200-500 ms-depolarizing step to various potentials from a holding potential of −100 mV. The external solution used to measure Na^+ currents contained (in mM) NaCl (145), KCl (5.3), CaCl2 (0.5), MgCl2 (5.7), HEPES (13), and glucose (5), pH 7.4 adjusted with KOH. The composition of the CsCl-pipette solution used to record Na^+ currents was the same describe above. Na^+ currents were generated by applying a 20 ms-depolarizing step to various potentials from a holding potential of −100 mV. To assess drug-evoked changes on specific ionic conductances, current amplitudes were expressed as current densities as previously reported. […]

T-type Ca^2+ channels = experiment: Whole-cell recording of T-type Ca2+ currents in differentiated ND7/23 cells; assay type: cell-based, mouse neuroblastoma and rat dorsal root ganglion cells; conditions: for Effect on T-type Ca2+ current density: vs non-treated cells
Protocol: as §1
(§2) Whole cell recordings were performed as previously described. A Nikon Eclipse Ti inverted microscope equipped with Hoffman optics and epifluorescence filters was used to visualize individual cells. Recordings were performed at room temperature (22-24° C.) using glass electrodes made from thin wall borosilicate glass (3-5 MΩ). For electrophysiological recordings of inward Ca^2+ currents, outward K^+ currents were eliminated by equimolar substitution of K^+ with Cs^+ in the pipette solution, whereas inward Na^+ currents were eliminated by the use of TEA ions in the external solution, which are unable to go through voltage-gated Na^+ channels. The pipette solution consisted of (in mM) CsCl (120), MgCl2(2), HEPES (10), EGTA (10), ATP (1), and GTP (0.1), pH 7.4 with CsOH. The composition of the normal external saline used for measurements of Ca^2+ currents was (in mM): tetraethylammonium chloride (TEACl, 145), CaCl2 (10), MgCl2(1), HEPES (10), and glucose (5), pH 7.4 adjusted with CsOH. Ca^2+ currents were generated by applying a 200-500 ms-depolarizing step to various potentials from a holding potential of −100 mV. The external solution used to measure Na^+ currents contained (in mM) NaCl (145), KCl (5.3), CaCl2 (0.5), MgCl2 (5.7), HEPES (13), and glucose (5), pH 7.4 adjusted with KOH. The composition of the CsCl-pipette solution used to record Na^+ currents was the same describe above. Na^+ currents were generated by applying a 20 ms-depolarizing step to various potentials from a holding potential of −100 mV. To assess drug-evoked changes on specific ionic conductances, current amplitudes were expressed as current densities as previously reported. To assess current densities, cell size was normalized by dividing current amplitudes by cell capacitance. Cell capacitance was determined by integrating the transient current evoked by a 10-mV voltage step from a holding potential of −60 mV.
(§3) A MULTICLAMP 700A amplifier and PCLAMP software (Axon Instruments) was used to deliver voltage commands and to perform data acquisition and analysis. Pipette offset, whole cell capacitance, and series resistance were compensated automatically with the MultiClamp 700B Commander. Only cells with stable seals and series resistance (≤10 MΩ) were analyzed. Sampling rates were between 5 and 10 kHz. Leak currents were subtracted online using a P/4 protocol. […]

[1] = test system: voltage-activated Na^+ channels; experiment: Whole-cell recording of Na+ currents in differentiated ND7/23 cells; assay type: cell-based, mouse neuroblastoma and rat dorsal root ganglion cells; conditions: 50 μM
Protocol: as §1
Whole cell recordings were performed as previously described. A Nikon Eclipse Ti inverted microscope equipped with Hoffman optics and epifluorescence filters was used to visualize individual cells. Recordings were performed at room temperature (22-24° C.) using glass electrodes made from thin wall borosilicate glass (3-5 MΩ). For electrophysiological recordings of inward Ca^2+ currents, outward K^+ currents were eliminated by equimolar substitution of K^+ with Cs^+ in the pipette solution, whereas inward Na^+ currents were eliminated by the use of TEA ions in the external solution, which are unable to go through voltage-gated Na^+ channels. […] To assess drug-evoked changes on specific ionic conductances, current amplitudes were expressed as current densities as previously reported. […] Cell capacitance was determined by integrating the transient current evoked by a 10-mV voltage step from a holding potential of −60 mV.
A MULTICLAMP 700A amplifier and PCLAMP software (Axon Instruments) was used to deliver voltage commands and to perform data acquisition and analysis. […] Only cells with stable seals and series resistance (≤10 MΩ) were analyzed. […]

human Cav3.3 = target: T2, human Cav3.3 (Homo sapiens, UniProt Q9P0X4); experiment: Whole-cell patch clamp of T-type Ca2+ currents in Cav3.3-stable transfected HEK 293 cells; assay type: cell-based
T2 construct: host or cells: HEK 293
Protocol: as §1, §2, §3

[2] = 50 μM, differentiated ND7/23 cells
[3] = increasing concentrations 1-50 μM

T1 sequence (O95180 whole entry): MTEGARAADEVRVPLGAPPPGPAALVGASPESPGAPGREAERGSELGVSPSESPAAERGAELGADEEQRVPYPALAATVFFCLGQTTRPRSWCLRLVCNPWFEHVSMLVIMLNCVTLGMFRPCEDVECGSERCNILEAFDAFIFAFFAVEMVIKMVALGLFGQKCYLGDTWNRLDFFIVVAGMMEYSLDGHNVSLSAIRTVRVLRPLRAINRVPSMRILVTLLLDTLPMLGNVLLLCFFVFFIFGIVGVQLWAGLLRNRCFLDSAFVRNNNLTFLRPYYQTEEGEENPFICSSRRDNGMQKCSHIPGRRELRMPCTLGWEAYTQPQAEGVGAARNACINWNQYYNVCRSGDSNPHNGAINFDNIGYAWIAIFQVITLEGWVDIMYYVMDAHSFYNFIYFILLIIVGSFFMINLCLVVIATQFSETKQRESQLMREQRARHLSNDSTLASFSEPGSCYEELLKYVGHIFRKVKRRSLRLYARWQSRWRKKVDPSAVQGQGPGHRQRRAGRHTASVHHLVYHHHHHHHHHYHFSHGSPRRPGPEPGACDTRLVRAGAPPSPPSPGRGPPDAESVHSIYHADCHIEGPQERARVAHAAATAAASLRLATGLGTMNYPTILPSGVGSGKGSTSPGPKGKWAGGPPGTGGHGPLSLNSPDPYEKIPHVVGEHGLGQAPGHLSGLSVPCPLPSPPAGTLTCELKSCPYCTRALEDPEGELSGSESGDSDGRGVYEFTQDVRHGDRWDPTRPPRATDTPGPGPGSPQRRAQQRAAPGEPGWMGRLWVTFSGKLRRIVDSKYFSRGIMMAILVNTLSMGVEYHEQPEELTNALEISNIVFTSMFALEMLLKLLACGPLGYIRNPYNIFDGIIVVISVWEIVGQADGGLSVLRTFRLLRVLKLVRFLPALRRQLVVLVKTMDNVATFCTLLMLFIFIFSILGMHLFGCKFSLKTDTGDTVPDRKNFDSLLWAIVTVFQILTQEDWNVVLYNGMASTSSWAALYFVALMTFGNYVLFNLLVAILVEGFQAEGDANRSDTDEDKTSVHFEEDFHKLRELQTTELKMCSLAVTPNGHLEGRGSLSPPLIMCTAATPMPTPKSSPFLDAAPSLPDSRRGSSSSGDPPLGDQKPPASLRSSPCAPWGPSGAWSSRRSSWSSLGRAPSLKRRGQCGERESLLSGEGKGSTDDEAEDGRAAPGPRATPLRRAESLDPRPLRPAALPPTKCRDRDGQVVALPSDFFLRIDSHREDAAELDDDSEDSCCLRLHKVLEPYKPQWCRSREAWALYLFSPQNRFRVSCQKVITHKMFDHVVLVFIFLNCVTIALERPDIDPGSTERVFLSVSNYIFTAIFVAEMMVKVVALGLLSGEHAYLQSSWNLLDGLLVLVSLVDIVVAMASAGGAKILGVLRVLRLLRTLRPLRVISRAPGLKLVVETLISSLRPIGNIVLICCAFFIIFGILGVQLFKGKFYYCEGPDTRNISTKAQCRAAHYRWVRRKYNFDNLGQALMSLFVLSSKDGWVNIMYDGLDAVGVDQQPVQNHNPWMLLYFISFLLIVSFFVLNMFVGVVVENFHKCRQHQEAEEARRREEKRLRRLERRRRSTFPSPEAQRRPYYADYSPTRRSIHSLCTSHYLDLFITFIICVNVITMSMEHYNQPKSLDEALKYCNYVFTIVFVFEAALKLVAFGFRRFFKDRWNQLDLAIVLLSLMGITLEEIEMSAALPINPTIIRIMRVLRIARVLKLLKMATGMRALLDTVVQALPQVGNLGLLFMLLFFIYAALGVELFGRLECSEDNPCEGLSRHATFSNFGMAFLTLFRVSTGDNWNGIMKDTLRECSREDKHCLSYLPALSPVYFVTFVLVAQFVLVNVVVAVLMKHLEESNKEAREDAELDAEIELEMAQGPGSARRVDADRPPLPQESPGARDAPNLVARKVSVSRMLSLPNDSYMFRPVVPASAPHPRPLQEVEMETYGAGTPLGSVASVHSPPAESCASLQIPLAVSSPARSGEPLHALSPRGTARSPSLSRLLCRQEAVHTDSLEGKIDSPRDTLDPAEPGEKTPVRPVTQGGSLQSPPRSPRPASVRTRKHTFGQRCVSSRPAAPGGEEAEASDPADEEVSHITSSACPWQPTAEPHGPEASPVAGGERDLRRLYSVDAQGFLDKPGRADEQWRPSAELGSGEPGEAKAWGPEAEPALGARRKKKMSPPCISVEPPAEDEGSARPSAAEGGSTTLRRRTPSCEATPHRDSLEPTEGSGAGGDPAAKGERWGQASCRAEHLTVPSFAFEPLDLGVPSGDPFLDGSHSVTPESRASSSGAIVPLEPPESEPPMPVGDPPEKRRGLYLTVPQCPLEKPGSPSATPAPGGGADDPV
T2 sequence (Q9P0X4 whole entry): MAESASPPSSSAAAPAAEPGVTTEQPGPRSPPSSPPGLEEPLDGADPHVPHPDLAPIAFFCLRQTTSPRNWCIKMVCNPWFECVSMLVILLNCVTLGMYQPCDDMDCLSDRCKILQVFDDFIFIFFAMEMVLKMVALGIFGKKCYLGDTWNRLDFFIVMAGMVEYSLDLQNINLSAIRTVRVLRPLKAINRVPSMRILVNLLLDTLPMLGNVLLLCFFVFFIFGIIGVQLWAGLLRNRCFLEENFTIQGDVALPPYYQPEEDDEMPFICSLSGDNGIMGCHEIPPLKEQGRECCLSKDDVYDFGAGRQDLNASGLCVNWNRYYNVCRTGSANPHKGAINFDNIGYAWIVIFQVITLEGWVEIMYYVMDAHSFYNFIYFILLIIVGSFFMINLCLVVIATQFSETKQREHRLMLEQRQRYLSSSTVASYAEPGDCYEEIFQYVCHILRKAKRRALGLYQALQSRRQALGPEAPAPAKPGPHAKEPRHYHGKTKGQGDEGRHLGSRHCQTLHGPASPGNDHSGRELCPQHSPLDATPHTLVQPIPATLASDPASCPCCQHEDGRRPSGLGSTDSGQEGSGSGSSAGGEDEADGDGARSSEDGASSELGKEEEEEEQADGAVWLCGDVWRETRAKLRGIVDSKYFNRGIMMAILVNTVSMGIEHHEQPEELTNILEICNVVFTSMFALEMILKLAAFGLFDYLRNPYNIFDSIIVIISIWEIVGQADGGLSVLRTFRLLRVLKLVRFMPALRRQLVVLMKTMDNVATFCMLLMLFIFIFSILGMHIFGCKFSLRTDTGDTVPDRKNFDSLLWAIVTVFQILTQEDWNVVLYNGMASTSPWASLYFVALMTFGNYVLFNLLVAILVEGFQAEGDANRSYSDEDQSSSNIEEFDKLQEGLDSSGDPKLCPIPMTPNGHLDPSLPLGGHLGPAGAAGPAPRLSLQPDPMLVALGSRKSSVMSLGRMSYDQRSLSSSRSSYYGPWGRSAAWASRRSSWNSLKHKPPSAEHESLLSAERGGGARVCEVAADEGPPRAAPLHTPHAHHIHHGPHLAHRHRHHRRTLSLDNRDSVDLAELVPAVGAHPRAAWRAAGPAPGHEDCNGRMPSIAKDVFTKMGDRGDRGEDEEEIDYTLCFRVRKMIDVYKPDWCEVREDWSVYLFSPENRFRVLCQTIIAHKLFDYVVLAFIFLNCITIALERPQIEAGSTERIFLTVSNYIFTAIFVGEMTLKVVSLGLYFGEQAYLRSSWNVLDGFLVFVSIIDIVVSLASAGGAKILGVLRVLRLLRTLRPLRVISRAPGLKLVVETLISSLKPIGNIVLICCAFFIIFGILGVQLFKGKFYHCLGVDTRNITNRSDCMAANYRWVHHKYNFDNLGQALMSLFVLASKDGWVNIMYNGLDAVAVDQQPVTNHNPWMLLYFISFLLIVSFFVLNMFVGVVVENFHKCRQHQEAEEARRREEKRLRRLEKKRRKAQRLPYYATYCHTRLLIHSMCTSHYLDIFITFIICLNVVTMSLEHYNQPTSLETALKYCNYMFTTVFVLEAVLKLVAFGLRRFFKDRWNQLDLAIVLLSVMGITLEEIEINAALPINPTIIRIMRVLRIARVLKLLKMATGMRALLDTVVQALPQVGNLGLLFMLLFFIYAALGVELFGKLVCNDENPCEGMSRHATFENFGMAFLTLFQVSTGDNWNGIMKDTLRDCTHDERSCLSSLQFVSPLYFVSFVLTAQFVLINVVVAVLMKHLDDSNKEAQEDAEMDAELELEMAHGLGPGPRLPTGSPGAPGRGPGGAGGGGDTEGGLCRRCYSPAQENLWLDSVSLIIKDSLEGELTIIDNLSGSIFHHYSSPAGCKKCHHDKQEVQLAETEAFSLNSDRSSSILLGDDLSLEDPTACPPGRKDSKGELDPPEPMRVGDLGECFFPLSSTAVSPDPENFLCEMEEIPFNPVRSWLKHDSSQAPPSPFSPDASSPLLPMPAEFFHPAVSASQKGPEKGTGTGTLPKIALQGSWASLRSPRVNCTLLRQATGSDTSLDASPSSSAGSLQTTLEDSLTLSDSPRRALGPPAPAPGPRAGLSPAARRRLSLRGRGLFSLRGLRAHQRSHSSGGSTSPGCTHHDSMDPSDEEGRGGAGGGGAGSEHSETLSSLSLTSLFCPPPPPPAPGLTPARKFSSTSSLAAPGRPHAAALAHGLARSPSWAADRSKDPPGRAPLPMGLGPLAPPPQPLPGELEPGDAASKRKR

CC1CC(=O)C=C(NC(=O)c2cccc(OC(F)(F)F)c2)C1 (stereo not shown) [ABA58]
Effect on whole cell capacitance (human Cav3.2; 50 μM, HEK 293-Cav3.2 cells): no significant changes; also recorded: no effect on cell capacitance

CC1CC(=O)C=C(NC(=O)c2ccccc2C(F)(F)F)C1 (stereo not shown) [IAA61, N-(5-methyl-3-oxocyclohex-1-en-1-yl)-2-(trifluoromethyl) benzamide]
Effect on T-type Ca2+ current density (T-type Ca^2+ channels; [2]): no effect | Effect on Na+ current density [1]: no noticeable effect

CC1CC(=O)C=C(NC(=O)c2cc(C(F)(F)F)cc(C(F)(F)F)c2)C1 (stereo not shown) [IAA65, N-(5-methyl-3-oxocyclohex-1-en-1-yl)-3,5-bis(trifluoromethyl) benzamide]
Effect on activation time constant (τ) (human Cav3.3; 10 μM): rightward shift; also recorded: significant increase | Effect on inactivation time constant (τ) (human Cav3.3; 10 μM): significant reduction | Effect on steady-state inactivation (human Cav3.3; 10 μM): no effect | Effect on voltage-current relationship (human Cav3.3; 10 μM): considerable reduction | Shift in voltage-dependence of T-type Ca2+ currents (human Cav3.3; 10 μM): no significant shift | Effect on cell capacitance (human Cav3.3; 1-50 μM): no effect on call capacitance; also recorded: no effect on cell capacitance | Effect on T-type Ca2+ current density (human Cav3.3; [3]): significant reduction | V1/2 of steady-state inactivation (Boltzmann fit) (human Cav3.3; treated cells, 10 μM): −58.5±2.1 mV | Reversal of the effect on T-type Ca2+ current density after drug washout (T-type Ca^2+ channels; 50 μM, 5 min washout): no significant recovery; also recorded: did not reverse the drug effect | Effect on T-type Ca2+ current density (T-type Ca^2+ channels; [2]): significant reduction | IC50 (T-type Ca^2+ channels; differentiated ND7/23 cells, read-out: IC50 on T-type Ca2+ current densities): 10.6 µM | Effect on Na+ current density [1]: no noticeable effect; also recorded: no effect on the Na^+ current densities | Effect on activation time constant (τ) (human Cav3.2; 10 μM): no significant changes; also recorded: no effect | Effect on inactivation time constant (τ) (human Cav3.2; 10 μM): no effect on the inactivation τ | Effect on peak current (human Cav3.2; 10 μM): significant reduction | Shift in voltage-dependence of T-type Ca2+ currents (human Cav3.2; 10 μM): without significant changes; also recorded: no significant shift | Shift of the steady-state inactivation curve (human Cav3.2; 10 μM): leftward shift | Effect on cell capacitance (human Cav3.2; 1-50 μM): no effect on cell capacitance | Effect on T-type Ca2+ current density (human Cav3.2; [3]): significant reduction | V1/2 of steady-state inactivation (Boltzmann fit) (human Cav3.2; treated cells, 10 μM): −70.2±1.0 mV

CC1CC(=O)C=C(NC(=O)c2cccc(C(F)(F)F)c2)C1 (stereo not shown) [IAB15, N-(5-methyl-3-oxocyclohex-1-en-1-yl)-3-(trifluoromethyl) benzamide]
Effect on T-type Ca2+ current density (T-type Ca^2+ channels; [2]): significant reduction | Effect on Na+ current density [1]: no noticeable effect; also recorded: no effect on the Na^+ current densities

CC1CC(=O)C=C(NC(=O)c2ccccc2F)C1 (stereo not shown) [IAB67, 2-fluoro-N-(5-methyl-3-oxocyclohex-1-en-1-yl) benzamide]
Effect on T-type Ca2+ current density (T-type Ca^2+ channels; [2]): None of the tested compounds has any effect | Effect on T-type Ca2+ current density (T-type Ca^2+ channels; 50 μM, differentiated ND7/23 cells, listed as IAB65): no effect on Ca^2+ current densities

CC(C)C1CC(=O)C=C(NC(=O)c2ccc(C(F)(F)F)cc2)C1 (stereo not shown) [IAC41, N-(5-isopropyl-3-oxocyclohex-1-en-1-yl)-4-(trifluoromethyl) benzamide]
Effect on T-type Ca2+ current density (T-type Ca^2+ channels; [2]): None of the tested compounds has any effect; also recorded: no effect on Ca^2+ current densities
